Test results: ChEMBL document CHEMBL5107949, “Design, synthesis, and antibacterial activity of N-(trifluoromethyl)phenyl substituted pyrazole derivatives” (RSC Med Chem, 2021)
Converted amounts (≈) assume the structure as drawn. The source made the active and inactive calls. The rule behind the calls is not given here.

Tests used:
HEK293 = assay: Cytotoxicity against human HEK293 cells reduction in cell viability at 74 ug/ml incubated for 24 hrs by resazurin cell viability assay; format: toxicity, cell-based; details: hek293, 24 h, at 74 µg/mL
Staphylococcus aureus [1] = assay: Inhibition of DNA synthesis in Staphylococcus aureus ATCC 29213 at 8 times MIC preincubated for 30 mins followed by [3H]-thymidine and measured after 30 mins by [3H]-thymidine incorporation based beta scintillation counter analysis; format: functional; details: time 60 min; 1 h
Enterococcus faecalis [2] = assay: Antibacterial activity against antibiotic susceptible Enterococcus faecalis ATCC 29212 assessed as inhibition of bacterial growth by CLSI protocol based broth microdilution method; format: functional
Staphylococcus aureus [3] = assay: Antibacterial activity against antibiotic resistant Staphylococcus aureus BAA-2312 assessed as inhibition of bacterial growth by CLSI protocol based broth microdilution method; format: functional
Bacillus subtilis = assay: Antibacterial activity against antibiotic resistant Bacillus subtilis ATCC 6623 assessed as inhibition of bacterial growth by CLSI protocol based broth microdilution method; format: functional
Enterococcus faecalis [4] = assay: Anti-biofilm activity against Enterococcus faecalis ATCC 29212 assessed as biofilm eradication at 3.125 to 12.5 ug/ml incubated for 24 hrs by Calgary biofilm device assay; format: functional, organism-based; details: dose 3.125-12.5 µg/ml
Staphylococcus aureus [5] = assay: Antibacterial activity against antibiotic resistant Staphylococcus aureus ATCC 33591 assessed as inhibition of bacterial growth by CLSI protocol based broth microdilution method; format: functional
Enterococcus faecalis [6] = assay: Inhibition of biofilm formation in Enterococcus faecalis ATCC 29212 at 12.5 ug/ml incubated for 24 hrs by Calgary biofilm device assay; format: functional
[7] = test system: Staphylococcus epidermidis; assay: Antibacterial activity against antibiotic resistant Staphylococcus epidermidis ATCC 700296 assessed as inhibition of bacterial growth by CLSI protocol based broth microdilution method; format: functional
Enterococcus faecalis [8] = assay: Inhibition of biofilm formation in Enterococcus faecalis ATCC 29212 at 6.25 ug/ml incubated for 24 hrs by Calgary biofilm device assay; format: functional; details: dose 6.25 µg/ml
Enterococcus faecalis [9] = assay: Anti-biofilm activity against Enterococcus faecalis ATCC 29212 assessed as eradication of biofilm formation incubated for 24 hrs by Calgary biofilm device assay; format: functional
Staphylococcus aureus [10] = assay: Antibacterial activity against antibiotic susceptible Staphylococcus aureus ATCC 25923 assessed as inhibition of bacterial growth by CLSI protocol based broth microdilution method; format: functional
Enterococcus faecalis [11] = assay: Anti-biofilm activity against Enterococcus faecalis ATCC 29212 assessed as minimum bactericidal concentration incubated for 24 hrs by Calgary biofilm device assay; details: ATCC 29212, 24 h
Staphylococcus aureus [12] = assay: Bactericidal activity against Staphylococcus aureus ATCC 700699 assessed as bacteria elimination at 4 times MIC and measured after 6 hrs by time-kill assay; format: functional
Staphylococcus aureus [13] = assay: Antibacterial activity against Staphylococcus aureus ATCC 25923 assessed as minimum bactericidal concentration incubated for 24 hrs by Calgary biofilm device assay; details: ATCC 25923, 24 h
[14] = Cytotoxicity against human HEK293 cells reduction in cell viability incubated for 24 hrs by resazurin cell viability assay; format: toxicity, cell-based
Staphylococcus aureus [15] = assay: Bactericidal activity against Staphylococcus aureus ATCC 700699 persisters assessed as log reduction in colony forming unit at 16 times MIC after 4 hrs by colony counting method; format: functional
Staphylococcus aureus [16] = assay: Antibacterial activity against antibiotic resistant Staphylococcus aureus ATCC 700699 assessed as inhibition of bacterial growth by CLSI protocol based broth microdilution method; format: functional
Staphylococcus aureus [17] = assay: Anti-biofilm activity against Staphylococcus aureus ATCC 25923 assessed as eradication of biofilm formation incubated for 24 hrs by Calgary biofilm device assay; format: functional
Staphylococcus aureus [18] = assay: Inhibition of biofilm formation in Staphylococcus aureus ATCC 25923 at 3.125 to 12.5 ug/ml incubated for 24 hrs by Calgary biofilm device assay; format: functional, organism-based; details: dose 3.125-12.5 µg/ml, DDE = dose-dependent effect
Staphylococcus aureus [19] = assay: Antibacterial activity against antibiotic resistant Staphylococcus aureus ATCC 33592 assessed as inhibition of bacterial growth by CLSI protocol based broth microdilution method; format: functional
Enterococcus faecium [20] = assay: Antibacterial activity against vancomycin resistant Enterococcus faecium ATCC 700221 assessed as inhibition of bacterial growth by CLSI protocol based broth microdilution method; format: functional
Staphylococcus aureus [21] = assay: Inhibition of biofilm formation in Staphylococcus aureus ATCC 25923 at 12.5 ug/ml incubated for 24 hrs by Calgary biofilm device assay; format: functional
Enterococcus faecalis [22] = assay: Antibacterial activity against Enterococcus faecalis clinical isolate 1091720 assessed as inhibition of bacterial growth by CLSI protocol based broth microdilution method; format: functional
Enterococcus faecium [23] = assay: Antibacterial activity against Enterococcus faecium clinical isolate 1088925 assessed as inhibition of bacterial growth by CLSI protocol based broth microdilution method; format: functional
Enterococcus faecalis [24] = assay: Antibacterial activity against Enterococcus faecalis clinical isolate 1091563 assessed as inhibition of bacterial growth by CLSI protocol based broth microdilution method; format: functional
Enterococcus faecalis [25] = assay: Antibacterial activity against Enterococcus faecalis clinical isolate 1100440 assessed as inhibition of bacterial growth by CLSI protocol based broth microdilution method; format: functional
Staphylococcus aureus [26] = assay: Bactericidal activity against Staphylococcus aureus ATCC 700699 assessed as bacteria elimination at 4 times MIC and measured after 10 hrs by time-kill assay; format: functional, organism-based
Enterococcus faecium [27] = assay: Antibacterial activity against Enterococcus faecium clinical isolate 1088168 assessed as inhibition of bacterial growth by CLSI protocol based broth microdilution method; format: functional
Enterococcus faecalis [28] = assay: Antibacterial activity against Enterococcus faecalis clinical isolate 1088051 assessed as inhibition of bacterial growth by CLSI protocol based broth microdilution method; format: functional
Enterococcus faecium [29] = assay: Antibacterial activity against Enterococcus faecium clinical isolate 1089544 assessed as inhibition of bacterial growth by CLSI protocol based broth microdilution method; format: functional
Enterococcus faecalis [30] = assay: Antibacterial activity against Enterococcus faecalis clinical isolate 1094112 assessed as inhibition of bacterial growth by CLSI protocol based broth microdilution method; format: functional
Enterococcus faecium [31] = assay: Antibacterial activity against Enterococcus faecium clinical isolate 1091282 assessed as inhibition of bacterial growth by CLSI protocol based broth microdilution method; format: functional
Enterococcus faecium [32] = assay: Antibacterial activity against Enterococcus faecium clinical isolate 1088228 assessed as inhibition of bacterial growth by CLSI protocol based broth microdilution method; format: functional
Staphylococcus aureus [33] = assay: Bactericidal activity against Staphylococcus aureus ATCC 700699 persisters assessed as log reduction in colony forming unit at 2 to 32 times MIC measured for 4 hrs by time kill assay; format: functional, organism-based; details: DDE = dose-dependent effect
Staphylococcus aureus [34] = assay: Bactericidal activity against Staphylococcus aureus ATCC 700699 persisters assessed as log reduction in colony forming unit at 32 times MIC measured for 4 hrs by time kill assay; format: functional
Staphylococcus aureus [35] = assay: Bactericidal activity against Staphylococcus aureus ATCC 700699 persisters assessed as log reduction in colony forming unit at 16 times MIC measured for 4 hrs by time kill assay; format: functional

Compound	MIC (Enterococcus faecalis [2])	MIC (Staphylococcus aureus [3])	MIC (Bacillus subtilis)	Activity (Enterococcus faecalis [4])	MIC (Staphylococcus aureus [5])	MIC [7]	MBEC (Enterococcus faecalis [9])	MIC (Staphylococcus aureus [10])	MBC (Enterococcus faecalis [11])	Activity (Staphylococcus aureus [12])	MBC (Staphylococcus aureus [13])	IC50 at 24 h [14]	log(activity) (Staphylococcus aureus [15])	MIC (Staphylococcus aureus [16])	MBEC (Staphylococcus aureus [17])	inhibition (Staphylococcus aureus [18])	MIC (Staphylococcus aureus [19])	MIC (Enterococcus faecium [20])	further results
CC/C(=C(\c1ccccc1)c1ccc(OCCN(C)C)cc1)c1ccccc1 [TAMOXIFEN]	–	–	–	–	–	–	–	–	–	–	–	–	–	–	–	–	–	–	Activity (HEK293): 100%
O=C(O)c1cn(C2CC2)c2cc(N3CCNCC3)c(F)cc2c1=O [CIPROFLOXACIN]	–	–	–	–	–	–	–	–	–	–	–	–	–	–	–	–	–	–	inhibition (INH) (Staphylococcus aureus [1]): 86.2%
Cc1cc(NCc2cn(-c3ccc(C(F)(F)F)cc3)nc2-c2ccc(C(=O)O)cc2)ccc1Br	6.25 µg/mL (≈ 11.8 µM)	3.12 µg/mL (≈ 5.88 µM)	1.56 µg/mL (≈ 2.94 µM)	Active	6.25 µg/mL (≈ 11.8 µM)	12.5 µg/mL (≈ 23.6 µM)	25 µg/mL	3.12 µg/mL (≈ 5.88 µM)	12.5 µg/mL (≈ 23.6 µM)	>99.9%	12.5 µg/mL (≈ 23.6 µM)	> 12 µg/mL	>2	1.56 µg/mL (≈ 2.94 µM)	12.5 µg/mL	Dde	3.12 µg/mL (≈ 5.88 µM)	3.12 µg/mL (≈ 5.88 µM)	inhibition (Enterococcus faecalis [6]; dose 12.5 µg/ml): Active; inhibition (Enterococcus faecalis [8]): Active; inhibition at 12.5 µg/mL (Staphylococcus aureus [21]): > 90%
CN[C@H](CC(C)C)C(=O)N[C@H]1C(=O)N[C@@H](CC(N)=O)C(=O)N[C@H]2C(=O)N[C@H]3C(=O)N[C@H](C(=O)N[C@H](C(=O)O)c4cc(O)cc(O)c4-c4cc3ccc4O)[C@H](O)c3ccc(c(Cl)c3)Oc3cc2cc(c3O[C@@H]2O[C@H](CO)[C@@H](O)[C@H](O)[C@H]2O[C@H]2C[C@](C)(N)[C@H](O)[C@H](C)O2)Oc2ccc(cc2Cl)[C@H]1O [VANCOMYCIN]	3.12 µg/mL (≈ 2.15 µM)	0.78 µg/mL (≈ 0.538 µM)	0.39 µg/mL (≈ 0.269 µM)	–	–	3.12 µg/mL (≈ 2.15 µM)	>50 µg/mL	0.78 µg/mL (≈ 0.538 µM)	25 µg/mL (≈ 17.3 µM)	–	6.25 µg/mL (≈ 4.31 µM)	–	–	3.12 µg/mL (≈ 2.15 µM)	–	–	–	> 50 µg/mL	MIC (Enterococcus faecalis [22]): > 32 µg/mL; MIC (Enterococcus faecium [23]): > 32 µg/mL; MIC (Enterococcus faecalis [24]): > 32 µg/mL; MIC (Enterococcus faecalis [25]): > 32 µg/mL; Activity (Staphylococcus aureus [26]): Active; MIC (Enterococcus faecium [27]): > 32 µg/mL; MIC (Enterococcus faecalis [28]): > 32 µg/mL; MIC (Enterococcus faecium [29]): > 32 µg/mL; MBEC (Staphylococcus aureus [17]; Staphylococcus aureus, ATCC 25923): > 50 µg/mL; MIC (Enterococcus faecalis [30]): > 32 µg/mL; MIC (Enterococcus faecium [31]): > 32 µg/mL; MIC (Enterococcus faecium [32]): > 32 µg/mL
O=C(O)c1ccc(-c2nn(-c3ccc(C(F)(F)F)cc3)cc2CNc2ccc(Oc3ccccc3)cc2)cc1	3.12 µg/mL (≈ 5.89 µM)	3.12 µg/mL (≈ 5.89 µM)	1.56 µg/mL (≈ 2.95 µM)	Active	3.12 µg/mL (≈ 5.89 µM)	3.12 µg/mL (≈ 5.89 µM)	12.5 µg/mL	1.56 µg/mL (≈ 2.95 µM)	12.5 µg/mL (≈ 23.6 µM)	>99.9%	3.12 µg/mL (≈ 5.89 µM)	23.5 µg/mL (≈ 44.4 µM)	>2	1.56 µg/mL (≈ 2.95 µM)	6.25 µg/mL	Dde	1.56 µg/mL (≈ 2.95 µM)	1.56 µg/mL (≈ 2.95 µM)	Activity (Staphylococcus aureus [33]): Dde; inhibition at 12.5 µg/mL (Enterococcus faecalis [6]): 100%; log(activity) (Staphylococcus aureus [34]): 3; log(activity) (Staphylococcus aureus [35]): 3
